Data on 24 compounds can be found in US12247019B2 (Centaurus Therapeutics, priority 2018, dated 2025).

The structures appear in SMILES notation. Read-outs that look alike come from different tables or passages of the source. A value given as a limit tells only on which side of the number the result lay.

Test [1] deals with insulin-stimulated Akt phosphorylation in C2C12 myotubes. Nature of the test: C2C12 myotube assay of insulin-stimulated phosphorylation of Akt. The format is cell-based. The note with it: 0.75 mM BSA-conjugated palmitate 16 hours, insulin 100 nM 10 minutes; read-out: half-maximal effective concentration (EC50) for increasing insulin-stimulated Akt phosphorylation in the presence of palmitate. The protocol:
C2C12 Myotube Assay of Insulin-Stimulated Phosphorylation of Akt:
C2C12 myotubes are treated with 0.75 mM BSA-conjugated palmitate for 16 hours in the presence or absence of 7 non-zero concentrations of fenretinide (Des1 inhibitor control compound) or various test articles, followed by a 10-minute stimulation with insulin (100 nM). Cells are subsequently harvested and boiled in reducing SDS sample buffer and subjected to SDS-PAGE followed by detection of phosphorylated Akt, total Akt, and a suitable loading control (e.g. actin or GAPDH) by western blot using fluorescently-conjugated secondary antibodies. Band intensities are quantitated by an Odyssey imaging system (Li—COR), but could also be performed using HRP-conjugated secondary antibodies/enhanced chemiluminescence or by colorimetric readout.
Moreover, while currently contemplated for SDS-PAGE/immunoblot format, this assay could be adapted to ELISA or in-cell western (immunocytochemistry) formats for higher throughput testing of compounds. An increase of 30% compared to vehicle control (0 μM test article) is indicative of an active compound, and an increase of 50% compared to control is preferred. […] Des1 inhibitors disclosed herein are expected to be effective in this assay.

Test [2] concerns the target T1, Des1 (Homo sapiens, UniProt O15121).
T1 sequence (O15121 1-323): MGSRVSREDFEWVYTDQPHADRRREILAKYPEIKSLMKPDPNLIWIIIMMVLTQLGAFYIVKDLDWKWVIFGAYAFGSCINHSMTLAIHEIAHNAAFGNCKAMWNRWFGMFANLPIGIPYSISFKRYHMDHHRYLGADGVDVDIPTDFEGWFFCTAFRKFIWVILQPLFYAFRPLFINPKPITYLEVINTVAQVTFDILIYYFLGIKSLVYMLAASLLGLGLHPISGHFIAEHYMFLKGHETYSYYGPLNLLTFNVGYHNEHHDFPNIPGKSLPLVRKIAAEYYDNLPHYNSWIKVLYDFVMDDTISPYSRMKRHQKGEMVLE
Description: Jurkat T cell measurement of conversion of dihydroceramide to ceramide (Des1 activity, LC-MS/MS of NBD-C6-ceramide). The format is cell-based. On the set-up: endogenous in cells; host or cells: Jurkat clone E6-1. The note with it: Jurkat clone E6-1 cells; for inhibition at 0.5 µM: 0.5 uM compound, read-out: Des1 % Inhib (0.5 uM). The procedure: (§1) Jurkat T Cell Measurement of Conversion of Dihydroceramide to Ceramide
(§2) Jurkat clone E6-1 cells were grown and then seeded at 10^6 cells/mL in a 96-well plate (400 μL in each well. The cells were administered 100 μL of cell culture media containing 50-μM NBD-C6-dihydroceramide (Des1 substrate), affording a final concentration of substrate of 10 μM. The cells were incubated with substrate at 4° C. for 30 minutes. Following the incubation at 4° C., the cell suspension was centrifuged at 1200 rpm for 3 minutes, and the cell pellet is resuspended in 400 μL of fresh media containing various concentrations of either fenretinide (known Des1 inhibitor control compound) or test article. The final concentrations of control compound and test compounds were tested in a range from 0-10 μM. The cells and compounds were incubated at 37° C. for 3 hours. Following the 3-hour incubation, the plate was centrifuged at 2500 g for 3 minutes at 4° C., followed by collection and transfer of 200 μL of the supernatant to a new 96-well plate with 300 μL of methanol an containing appropriate internal standards for liquid chromatography/tandem mass spectroscopy (LC/MS/MS) analysis (internal standard: 500 nM labetalol and 100 nM alprazolam). The samples were vortexed for 2 minutes followed by centrifugation at 3,220 g for 20 minutes. Following centrifugation, 200 μL of the supernatant was transferred to a new 96-well plate for LC-MS/MS analysis to determine the amount of NBD-C6-ceramide (Des1 product) produced. The assay was typically performed in duplicate. A reduction of at least 30% compared to vehicle control (0 μM test article) is indicative of an active compound, and a reduction of 75% compared to vehicle control is preferred.

For test [3], the system named is CFTR-KO mice. Particulars: Guilbault et al. 2008, 2009, cited from earlier work.
Test [4] addresses T1, Des1. Description: Jurkat T cell measurement of conversion of dihydroceramide to ceramide (Des1 activity, LC-MS/MS of NBD-C6-ceramide). The format is cell-based. Set-up: Jurkat clone E6-1 cells were grown and then seeded at 10^6 cells/mL in a 96-well plate; endogenous in cells; host or cells: Jurkat clone E6-1. Particulars: 0.5 uM compound; Jurkat clone E6-1 cells, 10 μM NBD-C6-dihydroceramide, 3 hours at 37° C.; read-out: Des1 % Inhib (0.5 uM). The protocol:
as §1
as §2, with “Following centrifugation, 200 μL of the supernatant was transferred to a new 96-well plate for LC-MS/MS analysis to determine the amount of NBD-C6-ceramide (Des1 product) produced. The assay was typically performed in duplicate. A reduction of at least 30% compared to vehicle control (0 μM test article) is indicative of an active compound, and a reduction of 75% compared to vehicle control is preferred.” left out

Where [5] appears, read: 10 μM NBD-C6-dihydroceramide, 3 hours at 37° C.
Where [6] appears, read: 10 μM NBD-C6-dihydroceramide, 3 hours at 37° C., read-out: Des1 IC50.

Consider `CC1=C(/C=C/C(C)=C/C=C/C(C)=C/C(=O)Nc2ccc(O)cc2)C(C)(C)CCC1` [fenretinide], for which the EC50 in test [1] is 600 nM. Moreover, the IC50 in test [2] (read-out: half-maximal inhibitory concentration (IC50)) was in the range of 100 to 250 nM. The “susceptibility to infection with Pseudomonas aeruginosa” value in test [3] (CFTR-KO mice) is listed as “reduce susceptibility to infection”. In addition, the “ratio of lung arachidonic acid (AA) to docosahexaenoic acid (DHA)” value in test [3] (lungs of CFTR-KO mice) is listed as “normalize this ratio”. For `O=S(=O)(Nc1ccc(O)cn1)N1CCN(c2ccc(F)cc2)CC1` [Example 72], the inhibition at 0.5 µM in test [4] was found to be 50.2%. For the compound `O=S(=O)(Nc1ccc(O)cn1)C1CCN(c2ccccc2)CC1` [Example 64, N-(5-hydroxypyridin-2-yl)-1-phenylpiperidine-4-sulfonamide], the inhibition at 0.5 µM in test [2] (setting [5]) came to 19.2%. With `CC(C)(C)c1ccc(S(=O)(=O)Nc2ccc(O)cn2)cc1` [Example 62, 4-tert-Butyl-N-(5-hydroxypyridin-2-yl)benzene-1-sulfonamide], the inhibition at 0.5 µM in test [2] (setting [5]) is 69.4%. Also, the IC50 in test [2] (setting [6]) was determined as 310 nM.

With `O=C(Nc1ccc(O)cn1)N1CCN(c2ncccn2)CC1` [Example 16, N-(5-hydroxypyridin-2-yl)-4-(pyrimidin-2-yl)piperazine-1-carboxamide], in test [2] (setting [5]), the inhibition at 0.5 µM is 31.4%. As to `O=C(Nc1ccc(O)cn1)OC1CCN(c2ccc(F)cc2)CC1` [Example 53, 1-(4-fluorophenyl)piperidin-4-yl N-(5-hydroxypyridin-2-yl)carbamate], the inhibition at 0.5 µM in test [2] (setting [5]) stood at 94.8%. In addition, in test [2] (setting [6]), the IC50 is 4 nM. `O=C(Nc1ccc(O)cn1)NC1CCCN(c2ccc(Cl)cc2)C1` (stereo not drawn) [Example 48, 1-[1-(4-chlorophenyl)piperidin-3-yl]-3-(5-hydroxypyridin-2-yl)urea]: the inhibition at 0.5 µM in test [2] (setting [5]) came out at 39.8%. Still for that read-out and setting: with `O=C(Nc1ccc(O)cn1)NC1CCCN(c2ccc(F)cc2)C1` (stereo not drawn) [Example 47, 1-[1-(4-fluorophenyl)piperidin-3-yl]-3-(5-hydroxypyridin-2-yl)urea] the figure was 51.8%; with `O=C(Nc1ccc(O)cn1)N[C@H]1CC[C@H](c2ccccc2)CC1` [Example 19, 3-(5-hydroxypyridin-2-yl)-1-[(1r,4r)-4-phenylcyclohexyl]urea], 76.7%. As for `O=C(Nc1ccc(O)cn1)N1CCN(c2ccc(F)cc2)CC1` [Example 5, 4-(4-Fluorophenyl)-N-(5-hydroxypyridin-2-yl)piperazine-1-carboxamide], the inhibition at 0.5 µM in test [2] (setting [5]) is 91.5%. Further, in test [2] (setting [6]), the IC50 lay in the range of 32 to 51 nM. `O=C(OCc1ccccc1)N1CCC(S(=O)(=O)Nc2ccc(O)cn2)CC1` [Example 63, Benzyl 4-[(5-hydroxypyridin-2-yl)sulfamoyl]piperidine-1-carboxylate]: the IC50 in test [2] (setting [6]) was more than 1000 nM. Take `O=C(Nc1ccc(O)cc1)N1CCN(c2ccc(F)cc2F)CC1` [Example 28, 4-(2,4-difluorophenyl)-N-(4-hydroxyphenyl)piperazine-1-carboxamide]: in test [2] (setting [5]), the inhibition at 0.5 µM worked out at 57.8%.

For the compound `O=C(Nc1ccc(O)cn1)N1CCN(c2ccc(F)nc2)CC1` [Example 50, 4-(6-fluoropyridin-3-yl)-N-(5-hydroxypyridin-2-yl) piperazine-1-carboxamide], the inhibition at 0.5 µM in test [2] (setting [5]) was 83%. On to `O=C(Nc1ccc(O)cn1)N1CCN(c2cccc(C(F)(F)F)n2)CC1` [Example 36, N-(5-hydroxypyridin-2-yl)-4-[6-(trifluoromethyl)pyridin-2-yl]piperazine-1-carboxamide], for which, in test [2] (setting [5]), the inhibition at 0.5 µM amounted to 94.9%. Moreover, in test [2] (setting [6]), the IC50 was determined as 23 nM. In the same order, the values of `O=C(Nc1ccc(O)cn1)N1CCN(c2nc(F)c(F)cc2F)CC1` [Example 83, N-(5-hydroxypyridin-2-yl)-4-(3,5,6-trifluoropyridin-2-yl) piperazine-1-carboxamide] are 94.9% and 65 nM.

For `O=C(Nc1ccc(O)cn1)OC1CCN(c2ccc(Cl)cc2)CC1` [Example 55, 1-(4-chlorophenyl)piperidin-4-yl N-(5-hydroxypyridin-2-yl)carbamate], the inhibition at 0.5 µM in test [2] (setting [5]) was determined as 96.5%. Besides, the IC50 in test [2] (setting [6]) was determined as 2 nM. For the compound `O=C(Nc1ccc(O)cc1)N1CCN(c2ccc(C(F)(F)F)cn2)CC1` [Example 31, N-(4-hydroxyphenyl)-4-[5-(trifluoromethyl)pyridin-2-yl]piperazine-1-carboxamide], in test [2] (setting [6]), the IC50 amounted to 340 nM.

As to `O=C(Nc1ccc(O)cn1)N1CCN(Cc2ccc(F)cc2)CC1` [Example 38, 4-[(4-Fluorophenyl)methyl]-N-(5-hydroxypyridin-2-yl)piperazine-1-carboxamide], the inhibition at 0.5 µM in test [2] (setting [5]) was determined as 91.5%. In addition, the IC50 in test [2] (setting [6]) was 60 nM. As to `O=C(Nc1ccc(O)cn1)N1CCN(c2ccc(Cl)cn2)CC1` [Example 22, 4-(5-chloropyridin-2-yl)-N-(5-hydroxypyridin-2-yl)piperazine-1-carboxamide], the IC50 in test [2] (setting [6]) was 14 nM. As for `O=C(Nc1ccc(O)cn1)OC1CCN(c2ccc(Cl)cc2Cl)CC1` [Example 58, 1-(2,4-dichlorophenyl)piperidin-4-yl N-(5-hydroxypyridin-2-yl)carbamate], the inhibition at 0.5 µM in test [2] (setting [5]) was found to be 96.8%. The IC50 in test [2] (setting [6]) stood at 4 nM.

In the case of `O=C(Nc1ccc(O)cn1)N1CCN(c2ccc(C(F)(F)F)cc2)CC1` [Example 14, N-(5-Hydroxypyridin-2-yl)-4-[4-(trifluoromethyl)phenyl]piperazine-1-carboxamide], in test [2] (setting [5]), the inhibition at 0.5 µM was 95.9%. Further, the IC50 in test [2] (setting [6]) is 3 nM. In the same order, the values of `O=C(Nc1ccc(O)cn1)OC1CCCCC1` [Example 42, Cyclohexyl N-(5-hydroxypyridin-2-yl)carbamate] are 81.4% and 35 nM. In the same order, the values of `O=C(Nc1ccc(O)cn1)N1CCC(c2ccccc2)CC1` [Example 1, N-(5-Hydroxypyridin-2-yl)-4-phenylpiperidine-1-carboxamide] are 89.6% and 42 nM. Turning to `CCCCCCNC(=O)Nc1ccc(O)cn1` [Example 40, 1-Hexyl-3-(5-hydroxypyridin-2-yl)urea], the inhibition at 0.5 µM in test [2] (setting [5]) is 89.1%. The IC50 in test [2] (setting [6]) was 13 nM.
